Measured values reported in paper PMC9001717, “Tyrosine 121 moves revealing a ligandable pocket that couples catalysis to ATP-binding in serine racemase” (Communications Biology, 2022).
Changes are numbered by the printed parent chain. Where two headings read alike, the source gives them in different places.

Tests used:
[1] = molecular target: T1, human serine racemase (hSR) WT (Homo sapiens, UniProt Q9GZT4, C2D/C6D); assay: L- to D-Ser racemisation coupled luminescence assay, wild-type hSR; format: biochemical; details: for IC50: wild-type hSR, 1 mM ATP, 2 mM L-serine, 16.7% DMSO, ~ = extrapolated with artificial 100% point at 1 M; for inhibition of SR, in words: assay data for compounds observed to displace Tyr 121; for inhibition at 16700 µM: maximum compound concentration 16.7mM, read-out: inhibition at maximum concentration used in assay
T1 construct: (His)6 (C); made in house; host or cells: E. coli (BL21-CodonPlus (DE3)-RIL for the mutants; the wild type is only 'as described[33]')
T1 sequence (Q9GZT4 1-340 C2D/C6D): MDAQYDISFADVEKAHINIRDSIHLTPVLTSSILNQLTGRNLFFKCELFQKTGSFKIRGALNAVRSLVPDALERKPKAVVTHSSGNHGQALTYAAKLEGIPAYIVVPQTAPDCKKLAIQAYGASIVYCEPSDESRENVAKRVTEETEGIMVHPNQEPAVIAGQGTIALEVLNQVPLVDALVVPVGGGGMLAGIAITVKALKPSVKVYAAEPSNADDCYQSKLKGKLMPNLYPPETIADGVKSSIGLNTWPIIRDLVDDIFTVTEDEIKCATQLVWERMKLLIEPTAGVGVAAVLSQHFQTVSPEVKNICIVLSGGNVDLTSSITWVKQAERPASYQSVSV
Procedure: (§1) The ability of compounds to inhibit the L to D-Ser racemisation activity of hSR was measured in a coupled assay. In the assay, hSR converts L-Ser to D-Ser. The D-Ser is then converted into pyruvate, ammonia and hydrogen peroxide using D-amino acid oxidase. Next, the hydrogen peroxide reacts with luminol in the presence of horseradish peroxidase, producing luminescent by-product. In the assay malonate was used as a control compound and gave 100% inhibition – results for XChem compounds are shown in Supplementary Table 4 and in supplementary Fig. 12. The activity of the wild-type and the three Y121 mutants, Y121F, Y121A and Y121G was measured at six ATP concentrations (1 mM, 0.5 mM, 0.25 mM, 0.125 mM, 0.062 mM and 0.031 mM) as shown in supplementary Fig. 11.
(§2) The inhibition of hSR activity was measured using a luminescence assay in a 384 well plate (flat bottom white, Corning). Initially, each well contained 100 mM Tris pH 8.5, 0.05% Pluronic f-127 (VWR), 1 mM MgCl2, 1 mM ATP (disodium salt, Fisher), 10 µM PLP, 0.3 nM hSR, 2 mM L-serine and compound at 16.67 mM to 0.0077 mM (see supplementary Fig. 12) and had 16.7% DMSO concentration. The plate was incubated at RT with shaking for 30 min. After this, the reaction was stopped using a detection mix. The final well concentration was 100 mM Tris pH 8.5, 0.05% Pluronic f-127 (VWR), 1 mM EDTA (Fisher), 0.25 U/mL horseradish peroxidase, 0.5 U/mL D-amino acid oxidase and 25 µM Luminol (Insight Biotechnology) and 8.4% DMSO. The plate was left to incubate covered and shaking for 10 min. The plate was then read using a PHERAstar (BMG) plate reader. For the ATP dependant activity data, the method was kept the same, except for varying the concentration of ATP.
(§3) The relative light units read (x) on the PHERAstar were converted into percentage inhibition (PI) using the equation: PI=100x[1−(x−Min)/(Max−Min)] where min is negative control (100% inhibition) and max is the positive control (no inhibition). The IC50s were calculated with GraphPad (Prism 8.3.1, Graphpad Software, San Diego CA).

hSR Y121A = molecular target: T2, hSR Y121A (Homo sapiens, UniProt Q9GZT4, C2D/C6D/Y121A); assay: L- to D-Ser racemisation coupled luminescence assay, Y121A mutant; format: biochemical; details: 1 mM ATP, 2 mM L-serine, 16.7% DMSO, ~ = extrapolated
T2 construct: (His)6 (C); made in house; host or cells: E. coli BL21-CodonPlus (DE3)-RIL
T2 sequence (Q9GZT4 1-340 C2D/C6D/Y121A): T1 sequence (Q9GZT4 1-340 C2D/C6D) with Y121A
Procedure: as §1, §2, §3

hSR Tyr 121 pocket = molecular target: T3, hSR Tyr 121 pocket (Homo sapiens, UniProt Q9GZT4, C2D/C6D); assay: XChem crystallographic fragment screen; format: binding; design: key: A = best; D = worst; details: crystals soaked with 150 mM fragment
T3 construct: (His)6 (C); made in house; host or cells: E. coli (BL21-CodonPlus (DE3)-RIL for the mutants; the wild type is only 'as described[33]')
T3 sequence (Q9GZT4 1-340 C2D/C6D): T1 sequence (Q9GZT4 1-340 C2D/C6D)
Procedure: A crystallographic fragment screen was performed on holo crystals using the XChem screening strategy at Diamond Light Source[58]. For the XChem experiments, holo crystals were generated at 20 °C in 96-well Swissci 3-drop, sitting drop plates (Molecular Dimensions) using 14 mg/mL SR plus fresh 5 mM DTT dispensed in a 3:2 ratio (300 nL protein + 200 nL reservoir) equilibrated against 20 μL reservoir containing 100 mM MES pH 6.2, 100 mM Calcium chloride, 5% ethylene glycol and 20% PEG Smear Broad (Molecular Dimensions). This crystallisation condition differs from that reported in a recent crystal structure of holo SR (6SLH) which was crystallised against reservoir/precipitate of 100 mM Bis-Tris pH 6.5, 15% PEG 3350, 250 mM MgCl2[33]. ATP was present in the protein delivery buffer at 1.25-fold times the protein subunit concentration.
Crystal soaking, harvesting, mounting, and data collections were performed at the Diamond Light Source XChem facilities and beamline I04-1 through the XChem workflow[50],[59]. […] The full compound screen was performed on 600 crystals which were each soaked with 150 mM fragment compound (30% v/v of 500 mM stocks in DMSO) for ≥1.5 h before crystals were harvested and mounted on the fast microscope crystal mounting system. The fragments screened were obtained from the Diamond-SGC-iNext Poised (DSiP) XChem library.
The structure of the representative XChem holo crystal (20% DMSO soak, no fragment) presented in this paper (6ZUJ) was solved by rigid body refinement based on a previous structure (6SLH)[33] and refined with phenix.refine[71] and REFMAC5[68],[72] and modelled in coot[69]. Initial analysis of approx. 600 ligand-soaked crystals was carried out using XChemExplorer[59] a data-management and workflow tool to support large-scale simultaneous analysis of protein–ligand complexes during structure-based ligand discovery. The workflow flagged 95 structures with binding events, 44 of which were classified as interesting, spanning four distinct binding sites. Five SR structures from the XChem screen are described in this paper that are representative examples of the four major binding sites. One compound, 2-x0406, occupied not just one of the four major binding sites, but also occupied a second site adjacent to the tyrosine 121 pocket.

hSR Y121F = molecular target: T4, hSR Y121F (Homo sapiens, UniProt Q9GZT4, C2D/C6D/Y121F); assay: L- to D-Ser racemisation coupled luminescence assay, Y121F mutant; format: biochemical; details: 1 mM ATP, 2 mM L-serine, 16.7% DMSO, ~ = extrapolated
T4 construct: (His)6 (C); made in house; host or cells: E. coli BL21-CodonPlus (DE3)-RIL
T4 sequence (Q9GZT4 1-340 C2D/C6D/Y121F): T1 sequence (Q9GZT4 1-340 C2D/C6D) with Y121F
Procedure: as §1, §2, §3

hSR Y121G = molecular target: T5, hSR Y121G (Homo sapiens, UniProt Q9GZT4, C2D/C6D/Y121G); assay: L- to D-Ser racemisation coupled luminescence assay, Y121G mutant; format: biochemical; details: 1 mM ATP, 2 mM L-serine, 16.7% DMSO, ~ = extrapolated
T5 construct: (His)6 (C); made in house; host or cells: E. coli BL21-CodonPlus (DE3)-RIL
T5 sequence (Q9GZT4 1-340 C2D/C6D/Y121G): T1 sequence (Q9GZT4 1-340 C2D/C6D) with Y121G
Procedure: as §1, §2, §3

rat brain SR = test system: rat brain SR; design: method as in PMID 30918891, PMID 12021263; details: cited from earlier work
SR [2] = details: cited from earlier work; for Ki: review of SR inhibitors
SR [3] = test system: SR; design: method as in supplementary refs 2, 11-32; details: literature summary; ref supplementary refs 2, 11-32; cited from earlier work
[4] = test system: slime mould (D. discoideum) SR; design: method as in ref 56 (a number printed in a supplementary file, which may have a reference list of its own: not looked up in the article's list); details: ref 56; cited from earlier work

Compound	IC50 [1] [mM]	IC50 (hSR Y121A) [mM]	Initial rank from examination of XChem electron density/fit (hSR Tyr 121 pocket)	IC50 (hSR Y121F) [mM]	other results
Nc1ccccc1N1CCOCC1 [3-x0458]	0.0106	0.0094	–	0.0123	inhibition of SR, in words [1]: reasonably potent inhibitors; inhibition at 16700 µM [1]: 100%; IC50 (hSR Y121G): 0.0234 mM
CC(=O)NC1CNc2ccccc2C1 (centres unmarked) [4-x0482]	0.0051	0.0033	–	0.0032	inhibition of SR, in words [1]: reasonably potent inhibitors; inhibition at 16700 µM [1]: 100%; IC50 (hSR Y121G): 0.0044 mM
CNCC1COc2ccccc2O1 (centres unmarked) [6-x0513]	–	–	A	–	–
O=C(CCCc1ccccc1)N1CCOCC1 [7-x0109]	~12.5	~22.3	–	~20.7	IC50 (hSR Y121G): ~26 mM
CCCc1nnc(NC(=O)c2ccccn2)s1 [8-x0127]	–	–	D	–	–
OCc1ccc(-n2cnc3ccccc32)cc1 [14-x0478]	~6.9	~7.85	–	~7.4	–
[Ca+2] [Ca^2+]	–	–	–	–	SR activity in the presence of the ion (rat brain SR; 1 mM ion): 134%
N[C@@H](CC(=O)NO)C(=O)O [L-aspartic acid β-hydroxamate]	–	–	–	–	Ki (SR [2]): < 0.1 mM; Inhibition mode (SR [3]): Competitive
N[C@H](C(=O)O)[C@H](O)C(=O)O [L-erythro-3-hydroxy-aspartate]	–	–	–	–	Ki (SR [2]): < 0.1 mM; Inhibition mode (SR [3]): Competitive
Nc1ncnc2c1ncn2[C@@H]1O[C@H](COP(=O)(O)OP(=O)([O-])OP(=O)([O-])O)[C@@H](O)[C@H]1O.[Mg+2] [Mg-ATP]	–	–	–	–	increase of elimination [4]: 6 fold; increase of racemisation [4]: 2.5 fold
[Mg+2] [Mg^2+]	–	–	–	–	SR activity in the presence of the ion (rat brain SR; 10 μM ion): 112%
[Mn+2] [Mn^2+]	–	–	–	–	SR activity in the presence of the ion (rat brain SR; 10 μM ion): 153%
madecassoside	–	–	–	–	IC50 (SR [2]; ref 49): 0.026 mM; Inhibition mode (SR [3]): Competitive

Continued, in another order:

IC50 [1] [mM]	IC50 (hSR Y121A) [mM]	Initial rank from examination of XChem electron density/fit (hSR Tyr 121 pocket)	IC50 (hSR Y121F) [mM]	Compound	other results
~19.5	~23.6	A	–	CC(=O)NCCc1ccccc1C [1-x0495]	inhibition at 10000 µM ([1]; 10mM, value of the originally submitted manuscript, quoted in peer review file): 102%
~3.7	~8.4	–	~7.8	O=C(NCc1nc2ccccc2[nH]1)c1ccco1 [2-x0406]	IC50 (hSR Y121G): ~7.4 mM
–	–	D	–	NC(=O)c1cnc(C(F)(F)F)nc1 [5-x0501]	–
–	–	D	–	Cn1nccc1C(=O)NCc1cccs1 [9-x0154]	–
–	–	D	–	CC(CS(N)(=O)=O)c1ccccc1 (centres unmarked) [10-x0302]	–
~25.3	~37.6	D	~29.9	NCc1cc(-c2ccccc2)no1 [12-x0437]	IC50 (hSR Y121G): ~26.3 mM
~12.8	~16.1	–	–	CS(=O)(=O)Cc1nc2ccccc2[nH]1 [15-x0306]	–
